Source: patent US20050176739A1, “Therapeutic agent for eating disorders” (priority 1999, published 2005)

Assays:
[1] = test system: Crj:CD (SD) rats; assay: Action of increasing feed intake by 4-week oral administration (Test Example 1); assay type: in vivo, rat
Method: Action of Increasing Feed Intake by 4-Week Oral Administration
Compound 1 was suspended in a 0.5% aqueous methyl cellulose solution to a final concentration of 0.6 mg/mL for 6 mg/kg dose, 3 mg/mL for 30 mg/kg dose, 16 mg/mL for 160 mg/kg dose, or 80 mg/mL for 800 mg/kg dose, and the resulting solution was used.
Male and female Crj:CD (SD) rats (SPF) at the age of 5 weeks were purchased from Nippon Charles River Co., Ltd., and were then fed and conditioned for 9 days. During the term, their body weight change and conditions were observed, and animals determined as in healthy conditions were used at the test. At the start of the use, the body weights of the male animals were within a range of 187 to 209 g, while those of the female animals were within a range of 147 to 173 g. During both of the conditioning and feeding term and the test term, the animals were fed with a solid feed for mouse and rat (CRF-1 15 kGy, Oriental Yeast Industry, Co., Ltd.) and with water, ad libitum.
(§1) As to the number of the animals used, 15 each of male and female animals were used for each group. As a negative control group, a group administered a 0.5% aqueous methyl cellulose solution alone was prepared. Based on the body weight at the termination of the conditioning and feeding term, the animals were randomly assigned to individual groups, so that the body weights were uniformly distributed among the resulting individual groups.
Oral administration was selected as the administration route. The solvent or a test compound-containing solution was administered once daily in the morning for 4 weeks in a dose of 1 mL per 100 g of body weight.
The feed intake of the test animals was measured on days 7, 14, 21 and 28. The measured values were tested for homoscedasticity by the Bartlett's test. When the variance was homogeneous, one-way layout analysis of variance was performed; in the case that significance was observed, herein, the control group and the individual dosed groups were tested by the Dunnett's test. When the variance was not homogeneous, the Kruskal-Wallis's rank test was performed; in the case that significance was observed among the groups, the Dunnett's test was conducted.

[2] = test system: Crj:CD (SD) rats; assay: Feed intake change by 4-week oral administration (Test Example 2); assay type: in vivo, rat
Method: (§2) Action of Increasing Feed Intake and Body Weight by 4-Week Oral Administration
(§3) Compound 1 was suspended in a 0.5% aqueous methyl cellulose solution to a final concentration of 20 mg/mL for 200 mg/kg dose or 40 mg/mL for 400 mg/kg dose, and the resulting solution was used.
(§4) Male and female Crj:CD (SD) rats (SPF) at the age 5 of weeks were purchased from Nippon Charles River Co., Ltd., and were then fed and conditioned for 7 days. During the term, their body weight change and conditions were observed, and animals determined as in healthy conditions were used at the test. At the start of the use, the body weights of the male animals were within a range of 177.4 to 193.6 g, while those of the female animals were within a range of 141.1 to 160.3 g. During both of the conditioning and feeding term and the test term, the animals were fed with a solid feed for mouse and rat [FR-2, Funabashi Agricultural Farm Co., Ltd.] and with water ad libitum.
as §1, with “5” for “15”
(§5) Oral administration was selected as the administration route. The solvent or the test compound was administered once daily in the morning for 4 weeks in a dose of 1 mL per 100 g of body weight.
(§6) The body weights and feed intake of the test animals were measured on days 0, 7, 14, 21 and 28. The individual measured values were tested, based on the same standards as in the […].

[3] = Body weight change by 4-week oral administration (Test Example 2); assay type: in vivo, rat
Method: as §2, §3, §4
as §1, with “5” for “15”
as §5, §6

[4] = test system: dd-strain male mice; assay: Acute toxicity test; assay type: in vivo, mouse; details: oral administration, mortality seven days after administration
Excerpt: Test compounds were orally administered to groups of dd-strain male mice weighing 20±1 g, each group consisting of three mice.

[5] = 4-week oral administration, male and female rats
[6] = female rats, 200 mg/kg po once daily, day 0
[7] = female rats, 200 mg/kg po once daily, day 7
[8] = female rats, 200 mg/kg po once daily, day 14
[9] = female rats, 200 mg/kg po once daily, day 21
[10] = female rats, 200 mg/kg po once daily, day 28
[11] = female rats, 400 mg/kg po once daily, day 0
[12] = female rats, 400 mg/kg po once daily, day 7
[13] = female rats, 400 mg/kg po once daily, day 14
[14] = female rats, 400 mg/kg po once daily, day 21
[15] = female rats, 400 mg/kg po once daily, day 28
[16] = male rats, 200 mg/kg po once daily, day 0
[17] = male rats, 200 mg/kg po once daily, day 7
[18] = male rats, 200 mg/kg po once daily, day 14
[19] = male rats, 200 mg/kg po once daily, day 21
[20] = male rats, 200 mg/kg po once daily, day 28
[21] = male rats, 400 mg/kg po once daily, day 0
[22] = male rats, 400 mg/kg po once daily, day 7
[23] = male rats, 400 mg/kg po once daily, day 14
[24] = male rats, 400 mg/kg po once daily, day 21
[25] = male rats, 400 mg/kg po once daily, day 28

CCn1c(=O)c2c(nc(/C=C/c3ccc(OC)c(OC)c3)n2C)n(CC)c1=O [Compound 1, (E)-8-(3,4-dimethoxystyryl)-1,3-diethyl-7-methylxanthine]
effect on feed intake (in words) [1, 5]: increased the feed intake both in the males and in the females
Feed intake (g ± SD) ([1]; female rats, 6 mg/kg po once daily, day 7): 15.93 ± 1.09 g
Feed intake (g ± SD) ([1]; female rats, 6 mg/kg po once daily, day 14): 18.03 ± 1.37 g
Feed intake (g ± SD) ([1]; female rats, 6 mg/kg po once daily, day 21): 18.76 ± 1.18 g
Feed intake (g ± SD) ([1]; female rats, 6 mg/kg po once daily, day 28): 18.80 ± 1.46 g
Feed intake (g ± SD) ([1]; female rats, 30 mg/kg po once daily, day 7): 17.24 ± 1.19 g
Feed intake (g ± SD) ([1]; female rats, 30 mg/kg po once daily, day 14): 19.38 ± 1.74 g
Feed intake (g ± SD) ([1]; female rats, 30 mg/kg po once daily, day 21): 19.93 ± 2.08 g
Feed intake (g ± SD) ([1]; female rats, 30 mg/kg po once daily, day 28): 20.50 ± 1.96 g
Feed intake (g ± SD) ([1]; female rats, 160 mg/kg po once daily, day 7): 17.73 ± 1.40 g
Feed intake (g ± SD) ([1]; female rats, 160 mg/kg po once daily, day 14): 19.56 ± 1.68 g
Feed intake (g ± SD) ([1]; female rats, 160 mg/kg po once daily, day 21): 20.56 ± 1.73 g
Feed intake (g ± SD) ([1]; female rats, 160 mg/kg po once daily, day 28): 20.87 ± 2.04 g
Feed intake (g ± SD) ([1]; female rats, 800 mg/kg po once daily, day 7): 17.30 ± 0.99 g
Feed intake (g ± SD) ([1]; female rats, 800 mg/kg po once daily, day 14): 19.19 ± 1.44 g
Feed intake (g ± SD) ([1]; female rats, 800 mg/kg po once daily, day 21): 20.43 ± 1.69 g
Feed intake (g ± SD) ([1]; female rats, 800 mg/kg po once daily, day 28): 21.13 ± 1.76 g
Feed intake (g ± SD) ([1]; male rats, 6 mg/kg po once daily, day 7): 21.45 ± 1.28 g
Feed intake (g ± SD) ([1]; male rats, 6 mg/kg po once daily, day 14): 23.97 ± 1.21 g
Feed intake (g ± SD) ([1]; male rats, 6 mg/kg po once daily, day 21): 24.96 ± 1.58 g
Feed intake (g ± SD) ([1]; male rats, 6 mg/kg po once daily, day 28): 25.23 ± 1.80 g
Feed intake (g ± SD) ([1]; male rats, 30 mg/kg po once daily, day 7): 23.54 ± 2.15 g
Feed intake (g ± SD) ([1]; male rats, 30 mg/kg po once daily, day 14): 26.12 ± 2.03 g
Feed intake (g ± SD) ([1]; male rats, 30 mg/kg po once daily, day 21): 27.03 ± 2.07 g
Feed intake (g ± SD) ([1]; male rats, 30 mg/kg po once daily, day 28): 27.37 ± 2.56 g
Feed intake (g ± SD) ([1]; male rats, 160 mg/kg po once daily, day 7): 23.94 ± 1.58 g
Feed intake (g ± SD) ([1]; male rats, 160 mg/kg po once daily, day 14): 26.20 ± 1.77 g
Feed intake (g ± SD) ([1]; male rats, 160 mg/kg po once daily, day 21): 27.31 ± 1.74 g
Feed intake (g ± SD) ([1]; male rats, 160 mg/kg po once daily, day 28): 27.81 ± 2.47 g
Feed intake (g ± SD) ([1]; male rats, 800 mg/kg po once daily, day 7): 22.84 ± 1.81 g
Feed intake (g ± SD) ([1]; male rats, 800 mg/kg po once daily, day 14): 25.40 ± 2.42 g
Feed intake (g ± SD) ([1]; male rats, 800 mg/kg po once daily, day 21): 26.67 ± 2.19 g
Feed intake (g ± SD) ([1]; male rats, 800 mg/kg po once daily, day 28): 27.03 ± 2.37 g
effect on feed intake (in words) [2, 5]: increased the feed intake
Feed intake (g ± SD) [2, 6]: 13.4 ± 1.7 g
Feed intake (g ± SD) [2, 7]: 20.2 ± 1.7 g
Feed intake (g ± SD) [2, 8]: 21.8 ± 1.7 g
Feed intake (g ± SD) [2, 9]: 20.9 ± 2.6 g
Feed intake (g ± SD) [2, 10]: 23.8 ± 3.0 g
Feed intake (g ± SD) [2, 11]: 14.6 ± 1.7 g
Feed intake (g ± SD) [2, 12]: 19.5 ± 2.2 g
Feed intake (g ± SD) [2, 13]: 21.1 ± 2.9 g
Feed intake (g ± SD) [2, 14]: 22.0 ± 2.6 g
Feed intake (g ± SD) [2, 15]: 24.5 ± 2.5 g
Feed intake (g ± SD) [2, 16]: 20.1 ± 1.0 g
Feed intake (g ± SD) [2, 17]: 28.4 ± 1.5 g
Feed intake (g ± SD) [2, 18]: 29.9 ± 1.6 g
Feed intake (g ± SD) [2, 19]: 30.2 ± 3.5 g
Feed intake (g ± SD) [2, 20]: 31.0 ± 1.1 g
Feed intake (g ± SD) [2, 21]: 20.7 ± 1.2 g
Feed intake (g ± SD) [2, 22]: 27.9 ± 2.5 g
Feed intake (g ± SD) [2, 23]: 30.2 ± 3.8 g
Feed intake (g ± SD) [2, 24]: 30.3 ± 3.9 g
Feed intake (g ± SD) [2, 25]: 34.8 ± 4.4 g
effect on body weight (in words) [3, 5]: increased the feed intake and body weight
Body weight (g ± SD) [3, 6]: 151.0 ± 5.7 g
Body weight (g ± SD) [3, 7]: 178.6 ± 7.6 g
Body weight (g ± SD) [3, 8]: 206.0 ± 7.1 g
Body weight (g ± SD) [3, 9]: 232.5 ± 13.4 g
Body weight (g ± SD) [3, 10]: 255.7 ± 17.3 g
Body weight (g ± SD) [3, 11]: 152.9 ± 4.5 g
Body weight (g ± SD) [3, 12]: 178.1 ± 3.3 g
Body weight (g ± SD) [3, 13]: 207.8 ± 11.5 g
Body weight (g ± SD) [3, 14]: 236.5 ± 16.3 g
Body weight (g ± SD) [3, 15]: 259.3 ± 14.3 g
Body weight (g ± SD) [3, 16]: 191.2 ± 2.4 g
Body weight (g ± SD) [3, 17]: 247.3 ± 4.8 g
Body weight (g ± SD) [3, 18]: 313.5 ± 12.1 g
Body weight (g ± SD) [3, 19]: 371.5 ± 23.9 g
Body weight (g ± SD) [3, 20]: 419.2 ± 28.0 g
Body weight (g ± SD) [3, 21]: 189.5 ± 4.4 g
Body weight (g ± SD) [3, 22]: 242.5 ± 10.7 g
Body weight (g ± SD) [3, 23]: 304.8 ± 15.7 g
Body weight (g ± SD) [3, 24]: 361.9 ± 23.8 g
Body weight (g ± SD) [3, 25]: 415.6 ± 29.2 g
minimum lethal dose (MLD) [4]: greater than 1000 mg/kg
